Structures are written as SMILES.

The series is described as follows: Human HepG2 cell viability assay in 384 well format. In kind it is toxicity, cell-based. The arrangement: dose 125 nL, time 70.5 hour; concentration not given beside the values. The note with it: HepG2 cells, read-out: Inhibition.
`CC(C)(C)c1cc2ncn(CCCN3CCCCC3CO)c(=O)c2s1` (centres undefined): the cytotoxicity at 70.5 h is -14.7%.

Take `CO[C@H]1CN(C(=O)c2ccc(C)o2)[C@@H]2CCCO[C@H]12`: the cytotoxicity at 70.5 h was -0.145%.

As to `COC1CCN(C(=O)C2CC(=O)N(c3ccccc3Br)C2)CC1` (centres undefined), the cytotoxicity at 70.5 h is -8.26%.

In the case of `Cc1ccc(N2CC(c3nccc(C)n3)C2)nn1`, the cytotoxicity at 70.5 h amounted to 9.5%.

As to `Fc1ccc(CNCCn2cccn2)cc1F`, the cytotoxicity at 70.5 h was determined as 16.8%.

Take `CN(C)c1ncc(-c2cccc(F)c2)c(C2CNCCO2)n1` (centres undefined): the cytotoxicity at 70.5 h was -5.48%.

With `CCc1nc(CN(C)CC(=O)NC(C)C)cs1`, the cytotoxicity at 70.5 h was -13.3%.

Regarding `CC(NC(=O)N1CCC1)c1ccc(S(N)(=O)=O)cc1` (centres undefined), the cytotoxicity at 70.5 h was -7.27%.

For the compound `CCCc1nc(C)cc(N2CCNC(C(=O)Nc3ccc(C)nc3)C2)n1` (centres undefined), the cytotoxicity at 70.5 h was 19.3%.

As for `CN(C)C(=O)C1CN(Cc2cscn2)CCN(S(C)(=O)=O)C1` (centres undefined), the cytotoxicity at 70.5 h was 7.94%.

As to `N#Cc1nccnc1N1CCC(c2nc(C(F)(F)F)c[nH]2)CC1`, the cytotoxicity at 70.5 h is -9.24%.

For `O=C(Nc1ccccc1OCC1CCCCO1)c1ccc(O)nc1` (centres undefined), the cytotoxicity at 70.5 h was -13%.

On to `COc1cccc(-c2ccnc3nc(N4CCCCC4)[nH]c(=O)c23)c1`, for which the cytotoxicity at 70.5 h worked out at 17.7%.

For `CC(=O)N[C@@H](CC(C)C)C(=O)N1CCC(n2cc(CC(C)C)nn2)CC1`, the cytotoxicity at 70.5 h was 6.61%.

Regarding `COc1ccc(-c2nc(CN3CCN(CCO)CC3)co2)cc1`, the cytotoxicity at 70.5 h came out at 30.3%.

As for `CNc1cc(C)nc(N2CCC3(CC2)[C@H](O)C[C@@H]3OCCO)n1`, the cytotoxicity at 70.5 h was -4.12%.

In the case of `Cc1cccnc1NC(=O)c1ccc(F)c(S(=O)(=O)N2CCC2)c1`, the cytotoxicity at 70.5 h is -19.3%.

On to `Cc1cccc(CN2CCC3(CC2)CC(c2cccnc2)C(=O)N3C)n1` (centres undefined), for which the cytotoxicity at 70.5 h was determined as 15.6%.

Take `CCn1nc(C)c(NC(=O)CN2CCN(C(C)=O)CC2)c1C`: the cytotoxicity at 70.5 h was -10.9%.

On to `CN1C(Cn2cccn2)C[C@@H]2CN(Cc3cnn(C)c3)CC[C@@H]21` (some centres undefined), for which the cytotoxicity at 70.5 h was -11.7%.

For `Cc1nc(C(C)C)sc1C(=O)NCCNc1ncccc1C#N`, the cytotoxicity at 70.5 h is -1.44%.

Take `COc1c[nH]c(C(=O)N2CCN(c3ccccc3)CC2)cc1=O`: the cytotoxicity at 70.5 h is -11.3%.

For `COCCCOc1ccc(C(=O)N(C)CCC(C)C)cn1`, the cytotoxicity at 70.5 h came to 20.8%.

For the compound `CC(C)NS(=O)(=O)c1cc(C(=O)O)cc(-n2cc3c(n2)CCC3)c1`, the cytotoxicity at 70.5 h was -0.272%.

On to `O=S(=O)(Nc1cnc(N2CCOCC2)nc1)c1ccc(Cl)cc1`, for which the cytotoxicity at 70.5 h was 3.18%.

With `Cn1nc(CNC(=O)c2ccc3c(c2)OCO3)c2c1CCOC2`, the cytotoxicity at 70.5 h was found to be 5.45%.

`O=C(NCCN1CCCCC1)c1nc(-c2ccc3cc[nH]c3c2)no1`: the cytotoxicity at 70.5 h is -4.34%.

With `OC1(CN2CCCC2)COCCN(c2noc(-c3ccccc3)n2)C1` (centres undefined), the cytotoxicity at 70.5 h was -11%.

`Cn1nc2c(cc1=O)CN(Cc1nc(-c3ccco3)no1)CC2`: the cytotoxicity at 70.5 h is -7.45%.

Regarding `COc1cc(NCC(=O)NC(C)(C#N)C(C)C)cc(OC)c1OC` (centres undefined), the cytotoxicity at 70.5 h was -0.783%.

For `CC(C)NC(=O)N1CCN(S(=O)(=O)C2CC2)CC2(CNC(=O)C2)C1` (centres undefined), the cytotoxicity at 70.5 h amounted to 1.9%.

For the compound `CC(=O)Nc1cccc2c1ccn2CC(=O)NC(C)C`, the cytotoxicity at 70.5 h was -2.5%.

With `Cc1ccc(CNC2CCc3nc(C(C)C)nn3C2)o1` (centres undefined), the cytotoxicity at 70.5 h is -4.86%.

On to `COC(=O)CNc1ccc(-c2nc(Cc3ccc(OC)cc3)no2)cn1`, for which the cytotoxicity at 70.5 h was -10.8%.

With `Cc1nc(-c2ccccc2)sc1CSCCC(N)=O`, the cytotoxicity at 70.5 h was determined as 12.1%.

For `Cc1ccnc(C2CCN(C(=O)CCn3ncc4ccccc43)C2)n1` (centres undefined), the cytotoxicity at 70.5 h is -8.45%.

Regarding `Cc1ccc(C(=O)N2CCC3(CC2)c2ccccc2[C@@H](N)[C@@H]3O)cc1F`, the cytotoxicity at 70.5 h is -10.1%.

On to `O=C(O)[C@H]1OCC(=O)N(Cc2cccc(F)c2)[C@@H]1c1ccc(Cl)cc1`, for which the cytotoxicity at 70.5 h is -9.16%.

Consider `CCCOCC(=O)N1CCC2(CC1)c1nc[nH]c1CCN2S(C)(=O)=O`, for which the cytotoxicity at 70.5 h was -5.48%.

`O=C(NCCc1nnc2n1CCCCC2)N1CCC2(CCCC2)CC1`: the cytotoxicity at 70.5 h was -7.24%.

On to `CC(C)Cc1noc(CN(C)C(=O)CCNC(=O)c2ccccc2F)n1`, for which the cytotoxicity at 70.5 h is -8.23%.

In the case of `CS(=O)(=O)N1CCOC2(CCCC2)C1`, the cytotoxicity at 70.5 h was -5.25%.

`O=C(Cc1ccco1)N1C[C@H]2CCC[C@@]2(COCc2cccnc2)C1`: the cytotoxicity at 70.5 h was -10.4%.

`Cc1nn(C)c(N(C)C)c1CNCc1cccc(Cn2cncn2)c1`: the cytotoxicity at 70.5 h is -3.12%.

Regarding `O=C(c1ccc(C2CCCO2)s1)N1CCCOCC1` (centres undefined), the cytotoxicity at 70.5 h is -8.57%.

With `c1ccc2c(c1)CC(N1CCCC(NCc3ccc4nonc4c3)C1)C2` (centres undefined), the cytotoxicity at 70.5 h is -17.7%.

For `Cn1cccc1C(=O)N1CCCC2(CCCN2Cc2cccnc2)C1` (centres undefined), the cytotoxicity at 70.5 h is -5.57%.

With `Fc1ccccc1CC1CCN(Cc2nccs2)CC1`, the cytotoxicity at 70.5 h is -3.29%.

As for `CCn1nc(C)c2nnn(CC(=O)Nc3ccccc3)c(=O)c21`, the cytotoxicity at 70.5 h was -10.7%.

With `CCCc1nc(CN(C)CCOc2ccccc2)cs1`, the cytotoxicity at 70.5 h was -8.59%.

With `c1ccc(N(CCn2cncn2)CC2CC2)cc1`, the cytotoxicity at 70.5 h was -4.37%.

Take `Cn1nc(CNC(=O)C2CC2)cc1C1CC1`: the cytotoxicity at 70.5 h worked out at 8.22%.

Consider `O=C(CCc1ccco1)N1CCCC(n2cccn2)C1` (centres undefined), for which the cytotoxicity at 70.5 h was -0.72%.

As to `CC(C)C(C)N(C(=O)Cn1nc2n(c1=O)CCCCC2)C1CC1` (centres undefined), the cytotoxicity at 70.5 h was -11.4%.

Regarding `CCC(CO)N(Cc1ccco1)C(=O)c1cccc(C)c1O` (centres undefined), the cytotoxicity at 70.5 h was -0.632%.

For the compound `Cc1c(C(=O)NC2CCCC2)nnn1-c1ccccc1`, the cytotoxicity at 70.5 h was -8.58%.

`CN(C)S(=O)(=O)c1ccc(CN2CCCC2c2ccccc2)o1` (centres undefined): the cytotoxicity at 70.5 h is 32.6%.

As for `NS(=O)(=O)c1cnn(CCC(=O)N(Cc2ccccc2)C2CC2)c1`, the cytotoxicity at 70.5 h is -7.26%.

As for `CC(=O)N1CCC(c2ccnc(Nc3ccc(C)cn3)n2)C1` (centres undefined), the cytotoxicity at 70.5 h came to 16%.

`CC(C)n1cnnc1CN(C)C(=O)Cn1ccc2ccccc2c1=O`: the cytotoxicity at 70.5 h is -8.95%.

Turning to `Cc1ccc(-c2cccc(N3CCC(NC4CCOCC4)CC3)c2)cc1`, the cytotoxicity at 70.5 h was -2.04%.

For the compound `N#Cc1cccc(NC2CC(=O)N(C3Cc4ccccc4C3)C2)n1` (centres undefined), the cytotoxicity at 70.5 h turned out to be 19%.

As for `Cc1nc(C)n(CC2CCCCN2CC(=O)Nc2nnc(C)s2)n1` (centres undefined), the cytotoxicity at 70.5 h came out at 1.52%.

Regarding `CN(Cc1ncc[nH]1)CC1CCOc2ccccc2C1` (centres undefined), the cytotoxicity at 70.5 h turned out to be 2.48%.

As for `Cc1cc(CN(C)Cc2csc(-c3cccs3)n2)n[nH]1`, the cytotoxicity at 70.5 h was -1.87%.

Consider `COc1ncccc1CNCc1cnc(N2CCOCC2)nc1`, for which the cytotoxicity at 70.5 h was -9.23%.

Turning to `CCc1nc(C2CCCN2c2ncc(Br)cn2)no1` (centres undefined), the cytotoxicity at 70.5 h is -6.32%.

`Cc1ccc(CN2CCN(CC(=O)N(C)C)[C@@H]3CS(=O)(=O)C[C@@H]32)cc1C`: the cytotoxicity at 70.5 h was -3.23%.

Consider `CCS(=O)(=O)N1C[C@H]2CN(Cc3cccc(F)c3)C(=O)[C@H]2C1`, for which the cytotoxicity at 70.5 h was -3.13%.

`CNC(=O)c1cccnc1N1CCN(C/C=C/c2ccccc2)CC1`: the cytotoxicity at 70.5 h came out at 6.62%.

As to `O=C(NCc1cccs1)[C@H]1CO[C@H]2CCN(C3CCCC3)C[C@H]2C1`, the cytotoxicity at 70.5 h turned out to be 4.95%.

As for `Cc1ccccc1CC(C)(C)NC(=O)CCOc1cccc(C(N)=O)c1`, the cytotoxicity at 70.5 h turned out to be 4.51%.

As to `NC(=O)c1ccc(N2CCCCC2)c(NC(=O)c2cc(F)ccc2F)c1`, the cytotoxicity at 70.5 h is -4.2%.

For the compound `CCNC(=O)O[C@H]1COCCN(c2nc3ccccc3s2)C1`, the cytotoxicity at 70.5 h is -2.95%.

In the case of `CCC(C)(C)NC(=O)CN(C)C(c1cccc(F)c1)c1ccccn1` (centres undefined), the cytotoxicity at 70.5 h came to 0.639%.

Take `CCN(Cc1ccc2c(c1)OCCO2)C(=O)c1ccc(C)[nH]c1=O`: the cytotoxicity at 70.5 h was -1.79%.

Take `O=C(Cc1ccccc1F)NCCN1CCOCC1`: the cytotoxicity at 70.5 h is -6.95%.

`CS(=O)(=O)NC[C@]12COC[C@H]1CN(Cc1ccc3c(c1)OCO3)C2`: the cytotoxicity at 70.5 h was determined as 5.12%.

`COc1ccc(C)cc1CCNS(C)(=O)=O`: the cytotoxicity at 70.5 h was -10.4%.

In the case of `CC(C)N1C[C@@H]2OCC(=O)N(Cc3ccccc3)[C@@H]2C1`, the cytotoxicity at 70.5 h was -10.2%.

Turning to `CN1CCN(Cc2ccc(-c3ccc(-c4ccn[nH]4)cc3)nc2)CC1`, the cytotoxicity at 70.5 h worked out at 0.0371%.

Turning to `NC(=O)CN1CCCN(C(=O)Cc2ccc3ccccc3c2)CC1`, the cytotoxicity at 70.5 h amounted to 33.3%.

For `CN(CCCc1cc(-c2ccccc2)no1)S(C)(=O)=O`, the cytotoxicity at 70.5 h amounted to 8.59%.

With `CCOCCN1CCCC(c2cc(C(N)=O)[nH]n2)C1` (centres undefined), the cytotoxicity at 70.5 h was -13.1%.

`c1cncc(OCc2noc3c2CN(Cc2cccs2)CC3)c1`: the cytotoxicity at 70.5 h was -24.1%.

As to `Cc1nc(COC(=O)c2cccnc2C)no1`, the cytotoxicity at 70.5 h was -5.39%.

As for `CCOc1ccc(-c2cc(CCN)ccc2OC)cc1`, the cytotoxicity at 70.5 h was -1.62%.

As for `CNC(=O)[C@@H](c1ccccc1)N1CCC[C@H]1C(=O)NC1CCCCC1`, the cytotoxicity at 70.5 h is -2.47%.

Regarding `CS(=O)(=O)N1CC(c2ccnc(Nc3ccccn3)n2)C1`, the cytotoxicity at 70.5 h was -3.95%.

Regarding `COc1c(Br)cccc1CCNC(=O)c1ncoc1C`, the cytotoxicity at 70.5 h came out at 9.9%.

Consider `CC(=O)NC[C@]1(O)CCN(C(=O)c2ccc3c(c2)OCO3)C[C@H]1O`, for which the cytotoxicity at 70.5 h is -4.98%.

Consider `CCc1ccc(C2COCCN2C(=O)Nc2ccc(C(N)=O)c(Cl)c2)o1` (centres undefined), for which the cytotoxicity at 70.5 h was -2.09%.

Turning to `CCc1ncc(CN(C)C2CCN(c3sccc3C#N)C2=O)s1` (centres undefined), the cytotoxicity at 70.5 h was -2.11%.

For the compound `CCC[C@H]1CN(C2CCOCC2)C[C@@H]1NC(=O)CCn1ccnc1C`, the cytotoxicity at 70.5 h was determined as 3.94%.

As to `NC(=O)CNC(=O)c1ccc(CNCc2ccc(F)cc2F)cc1`, the cytotoxicity at 70.5 h was -23.7%.

For `CC1COc2ccccc2N1C(=O)c1ccc(=O)n(C)c1` (centres undefined), the cytotoxicity at 70.5 h came out at 22.1%.

As for `Cn1cccc1C1CCCN1Cc1noc(C(C)(C)C)n1` (centres undefined), the cytotoxicity at 70.5 h was -21.2%.

Consider `O=C1[C@@H]2CCN(C3CCOCC3)C[C@@H]2OCCN1Cc1cccnc1`, for which the cytotoxicity at 70.5 h is -16%.

As for `Cn1ccnc1-c1nccn1-c1cccc(CN2CCCC2)c1`, the cytotoxicity at 70.5 h came to 2.21%.

These data come from ChEMBL document CHEMBL3507680, “University of Dundee, Gates Library screen for HepG2 cell viability”.
